Data on 3 compounds can be found in patent US10335423B2, “Inhibition of HIV infection through chemoprophylaxis” (THE UNITED STATES OF AMERICA, as represented by the …, priority 2006, dated 2019).

In data set [1] the test system is SHIVSF162P3. Put plainly: Repeated weekly rectal SHIV162p3 exposures under once daily prophylaxis (survival curves). It counts as in vivo, rhesus macaques. How it is done: A chimeric envelope SHIVSF162P3 isolate is used to inoculate the macaques. SHIVSF162P3 is a construct that contains the tat, rev, and env coding regions of HIV-1SF162 in a background of SIVmac239. This isolate was obtained from the National Institutes of Health (NIH) AIDS Research and Reference Reagent Program.^7,8 Virus exposures are performed 2 hours after drug treatment, and involved non-traumatic inoculation of 1 mL of SHIVSF162P3 (10 TCID50 or […]) into the rectal vault via a sterile gastric feeding tube.^9 Anesthetized macaques remained recumbent for at least 15 min after each intra-rectal inoculation.
The exact log-rank test is used for a discrete-time survival analysis of the treatment and control groups, with use of the number of inoculations as the time variable. The Cox proportional hazards model is used to estimate the relative hazard ratio (HR). Percent protection is calculated from the HR value using the formula: (1-1/HR)×100. All statistical analyses for calculation of the efficacy of the different interventions are performed using SAS software (version 9.1; SAS Institute) and StatXact software (version 6.3; Cytel).
Macaques are exposed rectally once weekly for up to 14 weeks to SHIV162p3 which contains an R5 tropic HIV-1 envelope that resembles naturally transmitted viruses. The SHIV162p3 challenge dose is 10 TCID50 or 7.6×10^5 RNA copies which is similar to HIV-1 RNA levels in semen during acute infection in humans.^11 Virus exposures are terminated when a macaque became infected. […] Three prophylactic drug treatments of increasing drug potency are each given once daily to a group of six macaques. Animals in Group 1 were treated subcutaneously with 20 mg/kg of FTC alone. Animals in Group 2 received orally a combination of FTC (20 mg/kg) and TDF (22 mg/kg). […] The rate of infection in each group is compared with that seen in 18 untreated control macaques (9 real time and 9 historical controls).
All treated macaques received the corresponding drugs 7 to 9 days prior to the first virus inoculation to achieve steady-state plasma levels. Treated animals that remained uninfected during the 14 challenges received 28 days of post-exposure prophylaxis after the last challenge. Protection was defined as absence of persistent viremia and seroconversion.
Data with TDF (20 mg/kg) is also provided for comparison.

The nature of a further data set: in vivo. The following applies: rhesus monkey. As for the experimental part: A dose of 22 mg/kg of tenofovir disoproxil fumarate (TDF) is given orally and 20 mg/kg of emtricitabine (FTC) given orally or subcutaneously to one group of adult male rhesus macaques.
The subject of data set [2] is SHIVSF162P3. Put plainly: SHIV plasma viral load (real-time PCR) in breakthrough infections. It counts as in vivo, rhesus macaques. As for the experimental part: Plasma RNA is quantified using a real-time PCR assay as previously described.^5 This assay has a sensitivity of detection of 50 RNA copies/ml or 10 copies of a pVp1 plasmid carrying the SIVmac239 RT gene. HIV-1 RNA is extracted from 1 mL of plasma using the NucliSens extraction method (bioMerieux). A known amount of virus particles (3×10^5) from an HIV-1 CM240 virus stock is added to each sample prior to extraction to control for the efficiency of extraction. Reverse transcription is performed using 10 microliters (μl) of extracted RNA and the 2-step TaqMan Gold reverse-transcriptase (RT)—PCR kit (Applied Biosystems) according to the manufacturer's instructions. PCR reactions are performed as described using an ABI 7000 […] (Applied Biosystems). Virus loads are calculated from a standard curve generated with known amount of virus particles. All primers and probes used for SIVmac239 and HIV-1 CM240 have been reported elsewhere.^5 HIV-1 CM240 is obtained from the National Institutes of Health (NIH) AIDS Research and Reference Reagent Program.
Since the dynamics of breakthrough infections that occur during inventive prophylaxis and drug resistance emergence are unknown, the 6 infected animals from Groups 1 and 2 are followed under continued drug treatment. FIG. 3 compares the virus load kinetics in the 6 breakthrough infections with those in 12 untreated macaques that had sufficient follow-up samples. The mean peak viremia in the 6 treated macaques was 4.9±0.5 log10 RNA copies/ml, 2.0 log10 lower than in untreated controls (6.9±0.3 log10 RNA). […] In contrast, all 12 untreated macaques had detectable virus loads during a median follow-up period of 7 weeks (range=5-36 weeks). The arrow in FIG. 4 denotes the first detectable antibody response. Grey circles indicate detectable M184V/I mutation; wild type sequences are shown in black full circles. Open circles are provided for data points not genotyped.
In general terms: In qPCR the cycle at which signal appears reflects the starting amount.

The conditions of data set [3]: human, in vivo, cited from earlier work.
Data set [4] relates to simian immunodeficiency virus (SIV). The settings on record: monkey models challenged with SIV; cited from earlier work.
The subject of the next data set is SHIV. The following applies: oral daily dosing, dose equivalent to that used in humans; cited from earlier work.

Where a name gives a salt, the structure may show the parent alone. Read-outs that look alike come from different tables or passages of the source.

`Nc1nc(=O)n([C@@H]2CS[C@H](CO)O2)cc1F` [FTC, emtricitabine]: the “exposure with first detectable viral RNA” value in the data set on SHIVSF162P3 [1] (animal AG-07) was determined as 13; with SHIVSF162P3 [1] (animal AG-46), 10; with SHIVSF162P3 [1] (animal AG-80) it was 5; in the data set on SHIVSF162P3 [1] (animal AH-04) it was 12. For the same compound, the “Cox proportional hazard ratio [HR] (fold reduction of infection compared to controls)” value with SHIVSF162P3 [1] (compared to 18 untreated controls) turned out to be 3.8. In addition, in the data set on SHIVSF162P3 [1] (compared to untreated controls), the “infection / survival analysis compared to untreated controls” value was “statistically significant difference”. Further, the “macaques that became infected” value with SHIVSF162P3 [1] (of 6 macaques per group, once daily treatment, up to 14 rectal exposures) is listed as 4. The “macaques remaining uninfected / protected after 14 exposures” value with SHIVSF162P3 [1] (of 6 macaques per group, once daily treatment, weekly rectal SHIV162p3) came to 2. The “protection compared with TDF alone” value with SHIVSF162P3 [1] (versus 4 animals previously receiving TDF, difference not statistically significant (p=0.5)) is listed as “higher than that previously seen in 4 animals receiving TDF”. In addition, the AUC – broadly, the area under the concentration-time curve, a measure of exposure – in the data set “in vivo” (male, 20 mg/kg) is 11 µg·h/mL; in data set [3] (po, 200 mg), 10.0 ± 3.12 µg·h/mL. For the same compound, in “in vivo”, the “plasma FTC levels after subcutaneous administration” value is given as “comparable to those achieved during oral administration”. Also, the results for the “time after the peak in viremia to undetectable virus loads” value with SHIVSF162P3 [2] (animal AG-07), in the data set with SHIVSF162P3 [2] (animal AG-80) and with SHIVSF162P3 [2] (animal AH-04) were 7 weeks, 3 weeks and 4 weeks, respectively. The viremia during follow-up result in the data set on SHIVSF162P3 [2] (for up to 20 weeks, animals AG-80, AH-04, AG-07, AG-81) is recorded as “consistently low or undetectable”.

As for `CC(C)OC(=O)OCOP(=O)(CO[C@H](C)Cn1cnc2c(N)ncnc21)OCOC(=O)OC(C)C` [TDF, tenofovir disoproxil fumarate], in the data set “in vivo” (male, po, 22 mg/kg), the “area-under the plasma concentration-time curve over a 24 h interval (AUC)” value is 4.49 µg·h/mL. In addition, in data set [3] (300 mg), the area under the curve (AUC) is 5.02 µg·h/mL.

Regarding `C[C@H](Cn1cnc2c(N)ncnc21)OCP(=O)(O)O` [tenofovir], the prophylactic activity result in data set [4] was “Prophylactic activity has been demonstrated”. Besides, the “protection against rectal SHIV transmission” value in the data set with SHIV was “partially protective”.
